This note sets out measurements from PubChem BioAssay (NCI).

Test systems include SW-620 colon; U251 CNS; SNB-75 CNS; HCT-15 colon; OVCAR-5 ovarian; HT29 colon; CCRF-CEM leukemia; SR leukemia; NCI-H522 lung; SK-MEL-28 melanoma; LOX IMVI melanoma; SK-MEL-2 melanoma; OVCAR-3 ovarian; UACC-62 melanoma; HL-60(TB) leukemia; 786-0 renal; HCC-2998 colon; SN12C renal; NCI-H226 lung.
What all share (assay): growth of human tumour cells (NCI), 48 h

SMILES strings stand for the structures.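 Each compound was tested at five concentrations against cells in 96-well plates for 48 hours. The concentration for full growth arrest is given as TGI.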

`O=C(O)Cn1c(=O)[nH]c(=O)c2[nH]cnc21`: the TGI in the assay on SW-620 colon, in the assay on U251 CNS, in the assay with SNB-75 CNS, in the assay with HCT-15 colon, in the assay on OVCAR-5 ovarian and with HT29 colon was greater than 100 µM throughout. The TGI in the assay on CCRF-CEM leukemia, in the assay with SR leukemia, with NCI-H522 lung, in the assay with SK-MEL-28 melanoma, in the assay with LOX IMVI melanoma and with SK-MEL-2 melanoma was greater than 100 µM each time. In addition, the TGI in the assay on OVCAR-3 ovarian, in the assay on UACC-62 melanoma, in the assay with HL-60(TB) leukemia, with 786-0 renal, in the assay with HCC-2998 colon and with SN12C renal was greater than 100 µM in each case.
For `CC(=O)NC(CCCNC(=O)NCCCl)C(=O)NCc1ccccc1` (stereo not given), the TGI with SW-620 colon, with U251 CNS, in the assay with SNB-75 CNS, in the assay with HCT-15 colon, in the assay on HT29 colon and in the assay with CCRF-CEM leukemia was greater than 100 µM throughout. The TGI in the assay with SR leukemia, with NCI-H522 lung, with SK-MEL-28 melanoma, with SK-MEL-2 melanoma, in the assay with OVCAR-3 ovarian and in the assay with UACC-62 melanoma was greater than 100 µM throughout. Moreover, the TGI with HL-60(TB) leukemia, with 786-0 renal, in the assay on HCC-2998 colon, with SN12C renal and in the assay with NCI-H226 lung was greater than 100 µM throughout.
`COC(=O)c1ccccc1NC(=O)C(=O)CC(=O)CC(c1ccccc1)c1c(O)c2ccccc2oc1=O` (stereo not given): the TGI in the assay with SW-620 colon, with OVCAR-5 ovarian, in the assay with HT29 colon, with CCRF-CEM leukemia, in the assay with SR leukemia and with NCI-H522 lung was greater than 100 µM each time. The TGI with SK-MEL-28 melanoma, with SK-MEL-2 melanoma, in the assay with OVCAR-3 ovarian, in the assay on UACC-62 melanoma, with HL-60(TB) leukemia and with 786-0 renal was greater than 100 µM in each case. Besides, the TGI in the assay on HCC-2998 colon and in the assay with SN12C renal was greater than 100 µM in each case.
Turning to `CCc1cccc(C(C)CC)c1NC(=O)C(=O)C(CC(=O)Nc1ccc(Cl)c(Cl)c1)C(=O)OC` (stereo not given), the TGI in the assay on SW-620 colon, in the assay on U251 CNS, in the assay on SNB-75 CNS, in the assay with HCT-15 colon, with OVCAR-5 ovarian and in the assay on HT29 colon was greater than 100 µM throughout. For the same compound, the TGI in the assay with CCRF-CEM leukemia, in the assay on SR leukemia, with NCI-H522 lung, with SK-MEL-28 melanoma, with SK-MEL-2 melanoma and in the assay on OVCAR-3 ovarian was greater than 100 µM in each case. Besides, the TGI in the assay with UACC-62 melanoma was 18.9 µM; with HL-60(TB) leukemia, greater than 100 µM; in the assay on 786-0 renal, greater than 100 µM; in the assay with HCC-2998 colon, greater than 100 µM; with SN12C renal, greater than 100 µM; with NCI-H226 lung it was greater than 100 µM.
Regarding `CCC1(N=[N+]=[N-])C(=O)c2ccccc2N(c2ccccc2)C1=O` (stereo not given), the TGI with SW-620 colon, with U251 CNS, in the assay on SNB-75 CNS, in the assay on HCT-15 colon, in the assay on OVCAR-5 ovarian and in the assay on HT29 colon was greater than 100 µM each time. The TGI with CCRF-CEM leukemia, with SR leukemia, in the assay with NCI-H522 lung, in the assay with SK-MEL-28 melanoma, in the assay with LOX IMVI melanoma and with SK-MEL-2 melanoma was greater than 100 µM each time. The TGI with OVCAR-3 ovarian, with UACC-62 melanoma, with HL-60(TB) leukemia, in the assay with 786-0 renal, with HCC-2998 colon and in the assay with SN12C renal was greater than 100 µM each time.
With `COC(=O)NC(=O)c1cn(CCCOC(=O)CCCCCCCCC(=O)OCCCn2cc(C(=O)NC(=O)OC)c(=O)[nH]c2=O)c(=O)[nH]c1=O`, the TGI with SW-620 colon was greater than 100 µM; in the assay with SNB-75 CNS, 50.1 µM; with HCT-15 colon, greater than 100 µM; in the assay on OVCAR-5 ovarian, greater than 100 µM; in the assay with HT29 colon, greater than 100 µM; with CCRF-CEM leukemia, greater than 100 µM. Also, the TGI with SR leukemia, with SK-MEL-28 melanoma, in the assay with LOX IMVI melanoma, in the assay on SK-MEL-2 melanoma, in the assay on OVCAR-3 ovarian and in the assay on UACC-62 melanoma was greater than 100 µM in each case. Also, the TGI in the assay on HL-60(TB) leukemia, in the assay with 786-0 renal, in the assay on HCC-2998 colon, with SN12C renal and in the assay on NCI-H226 lung was greater than 100 µM in each case.
With `COC(=O)CCc1cccnc1/C=N/O`, the TGI with SW-620 colon, with U251 CNS, with SNB-75 CNS, in the assay on HCT-15 colon, in the assay on OVCAR-5 ovarian and in the assay on HT29 colon was greater than 100 µM throughout. The TGI with CCRF-CEM leukemia, with SR leukemia, with NCI-H522 lung, in the assay on SK-MEL-28 melanoma, in the assay with LOX IMVI melanoma and in the assay on SK-MEL-2 melanoma was greater than 100 µM in each case. The TGI in the assay on OVCAR-3 ovarian, with UACC-62 melanoma, with HL-60(TB) leukemia, in the assay on 786-0 renal, in the assay with SN12C renal and in the assay with NCI-H226 lung was greater than 100 µM in each case.
